Here are results for 4 molecules from publication PMC10659437 (bioRxiv, 2023).

pEC50: −log10 of the molar value.

Assay type in all cases: cell-based
Assay [1] addresses T1, human trace amine-associated receptor 1 (hTAAR1, hTA1) (Homo sapiens, UniProt Q96RJ0).
T1 sequence (Q96RJ0 1-339): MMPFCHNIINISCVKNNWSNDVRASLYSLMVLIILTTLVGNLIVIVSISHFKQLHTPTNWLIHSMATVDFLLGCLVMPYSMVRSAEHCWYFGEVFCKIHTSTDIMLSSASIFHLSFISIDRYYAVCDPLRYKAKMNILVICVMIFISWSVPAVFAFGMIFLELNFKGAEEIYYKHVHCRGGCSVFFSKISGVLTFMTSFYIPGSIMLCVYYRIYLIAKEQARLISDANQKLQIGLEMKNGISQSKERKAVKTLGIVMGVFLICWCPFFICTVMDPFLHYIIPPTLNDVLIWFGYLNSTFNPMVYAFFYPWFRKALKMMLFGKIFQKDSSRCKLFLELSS
Description: GloSensor cAMP accumulation, hTA1-transfected HEK293T cells. (cAMP levels reflect the balance of adenylyl cyclase and phosphodiesterase activity.)

Assay [2] has as its target T1, human trace amine-associated receptor 1 (hTAAR1, hTA1). The experiment in a line: GloSensor cAMP accumulation, hTA1-transfected HEK293T cells, with pocket mutants.
The target is the same in assay [3]. Description: cryo-EM structure of the hTA1-Gs complex.

Take `Cc1c(F)cccc1[C@H]1COC(N)=N1` [Ro5263397]: the pEC50 (usually the negative decadic logarithm of the EC50, by convention in mol/L) in assay [1] was 8.83.

In assay [2], `CN1CC2c3ccccc3Oc3ccc(Cl)cc3C2C1` (stereo not shown) [asenapine] came in with an EC50 of 6.56 ± 0.01 pEC50.

As for `CC[C@@H](C[C@H]1COC(N)=N1)c1ccccc1` [Ro5256390], the pEC50 in assay [3] was approximately 8.30.

Molecule `NCCc1ccc(O)cc1` [tyramine] returned an EC50 in assay [1] of 6.38 ± 0.04 pEC50.
